This is an account of results in paper PMC10514136, “Peptide-conjugated antimiRs improve myotonic dystrophy type 1 phenotypes by promoting endogenous MBNL1 expression” (Molecular Therapy. Nucleic Acids, 2023).

Series [1] relates to MBNL1 protein levels in DM1 cells. Put plainly: MBNL1 protein levels by QDB in DM1 cells after gymnotic delivery. Conditions: for MBNL1 protein levels vs untreated DM1 cells: gymnosis at the EC50 concentration of each compound; for MBNL1 fold change: gymnotic delivery. It is filed as cell-based, human. The protocol:
Immortalized MyoD-inducible (doxycycline) DM1 and control fibroblasts were kindly provided by Dr Furling (Institute of Myology, Paris, France).[38] For the activity assay, cells were seeded in 6-well plates at a density of 8 × 10^4 cells/well and grown in DMEM with 4.5 g/L glucose, 1% P/S, and 10% FBS (Sigma, St. Louis, MO). To transdifferentiate fibroblasts into myoblasts by inducing MyoD expression, the cells were plated in muscle differentiation medium containing DMEM with 4.5 g L^−1 glucose, 1% P/S, 2% horse serum, 1% apo-transferrin (10 mg mL^−1), 0.1% insulin (10 mg mL^−1), and 0.02% doxycycline (10 mg mL^−1). In all cases, the cells were grown at 37°C in a humidified atmosphere containing 5% CO2. Transdifferentiation was induced at day 0, and transfection was performed by lipofection with X-tremeGENE HP (Roche, Basel, Switzerland) 24 h later, with antimiRs and test compounds in the cell medium at different concentrations (from 0.4 nM to 5 μM). The medium was replaced with fresh differentiation medium 4 h afterward. In the gymnosis assay, test compounds were added to the culture medium only at the corresponding EC50 concentration. Cells were collected on day 4 of differentiation and were processed for protein extraction.
A 96-well plate QDB assay was used[87] to determine MBNL1 protein levels in all replicates and concentrations of each ON tested. This technique allows for high-throughput screening of low protein concentration samples over conventional western blot (WB) (Figure S9).[88] Cell samples (1 μg/well) and mice samples (2 μg/well) were prepared with 4× loading buffer, denatured (100°C for 5 min) and loaded in QDB plates (Quanticision Diagnostics, Research Triangle Park, NC). For the quantification of in vitro samples, the QDB was performed exactly as described in Moreno et al.[87] Each cell sample was loaded in quadruplicate in two different plates; one was used to detect MBNL1 (it was incubated overnight with primary mouse anti-MBNL1 [1:1,000, Abcam, ab77017]) and the other for GAPDH (it was incubated overnight with primary mouse anti-GAPDH [1:500, Santa Cruz, clone G-9]), which was used here as an endogenous control. For Mbnl1 quantification in mouse muscle tissues, we implemented the following modifications: each sample was loaded in quadruplicate on three different plates. One was used to detect Mbnl1 with a mouse MB1a(4A8) antibody (DSHB, Iowa City, IA) using a 1:200 dilution. A second plate was used to quantify tubulin (endogenous normalization control) with a mouse 12G10 antibody (DSHB) using a 1:1,000 dilution. A third plate was used to quantify IgG signal (negative control to subtract background) using an anti-mouse-IgG secondary antibody (Sigma-Aldrich) at 1:3,500 dilution. This subtraction was necessary due to an unspecific IgG signal could be observed in mouse samples (Figures S10A–S10D). All primary antibodies were detected using horseradish peroxidase-conjugated anti-mouse-IgG secondary antibody (1:5,000 for the anti-mouse plate, 1:2,000 for cell plates, and 1:3,500 for mouse plates [Sigma-Aldrich, MO]). Immunoreactive bands were detected using Pierce ECL Western reagent (Thermo Scientific), and luminescence levels were determined using an Infinite M200 PRO plate reader (Tecan). The validity of this correction for QDB quantification of mouse samples was confirmed by performing a series of experiments determining both the window of linearity of the assay (2–5 μg protein, Figures S10A–S10B) and the comparison with data obtained by WB in a subset of samples (Figures S10E–S10H), obtaining a correlation of 0.9927 for MBNL1 and 0.8678 for tubulin (in the case of quadriceps), and 0.9821 for MBNL1 and 0.9699 for tubulin (in gastrocnemius). For WB assay in quadriceps (Figure S10I), samples were loaded in pools of each treatment to have a representative WB of all the treatments tested. WB assay was performed as described previously.[20]

Series [2] deals with IL-1β, IL-6, MCP-1, IL-12β, TNF-α, IL-15, Mstn-1. Kind of series: Proinflammatory cytokines and Mstn-1 in quadriceps by qRT-PCR. The format is in vivo, mouse. For orientation: Real-time PCR tracks product formation cycle by cycle.
A further series has as its system miR-218. Kind of series: Functional miR-218 levels in gastrocnemius and quadriceps by qRT-PCR. The format is in vivo, mouse. As to conditions: HSALR mice, 9.2 mg/kg (mean) i.v. every 2 weeks x3, day 45, vs PBS-treated HSALR. The protocol: (§1) miRNA expression in muscle tissues was quantified using specific miRCURY-locked nucleic acid microRNA PCR primers (QIAGEN) according to the manufacturer's instructions. […] Expression levels were measured using a QuantStudio 5 Real-Time PCR System (Applied Biosystems, Foster City, CA). […] Mouse handling and experimental procedures followed the European law regarding laboratory animal care and experimentation (2003/65/C.E.) and were approved by Conselleria de Agricultura, […] (reference no. A1539961490857). We used homozygous transgenic HSA^LR (line 20 b) mice,[90] which were kindly provided by Dr Thornton (Rochester, NY) and were housed and bred in our animal facility. […] The mice were randomly allocated to the different treatments as follows: in each cage, each mouse was ear-marked as it was taken out, and each mouse was then assigned to a different treatment. Animals were injected biweekly intravenously with 150 μL of 1× PBS vehicle (controls; […] Mice were sacrificed 45 days after the first injection and the tissues of interest were frozen in liquid nitrogen for the molecular and histological assays. All the mice used in this study ranged from 5 to 5.5 months of age and all were males.

The subject of a further series is miR-23b. Put plainly: Functional miR-23b levels in gastrocnemius and quadriceps by qRT-PCR. The format is in vivo, mouse. Conditions: HSALR mice, 9.2 mg/kg (mean) i.v. every 2 weeks x3, day 45, vs PBS-treated HSALR. The protocol: as §1
Setting [3] is: HSALR mice, 9.2 mg/kg (mean) i.v. x3, day 45, qRT-PCR.

Regarding “6aKC-23b (antisense GGUAAUCCCUGGCAAUGUGAU; all phosphorodiamidate morpholino (PMO), T or U not given here; Pip6aKC peptide conjugated)”, in series [1], the “MBNL1 protein levels vs untreated DM1 cells” value was “significant increases observed in MBNL1 protein levels”. Also, the MBNL1 fold change in series [1] (200 nM) is given as about 2.5 fold.

For “6aKC-218 (antisense ACAUGGUUAGAUCAAGCACAA; all phosphorodiamidate morpholino (PMO), T or U not given here; Pip6aKC peptide conjugated)”, in series [1], the “MBNL1 protein levels vs untreated DM1 cells” value was “significant increases observed in MBNL1 protein levels”. Further, the MBNL1 fold change in series [1] (1 μM) is given as about 2 fold.

“9b2-23b (antisense GGUAAUCCCUGGCAAUGUGAU; all phosphorodiamidate morpholino (PMO), T or U not given here; Pip9b2 peptide conjugated)”: the “Mstn-1 expression in quadriceps” value in series [2] (setting [3]) is recorded as “downregulation of Mstn-1”. For the same substance, in series [2] (mouse, in vivo), the “IL1β Quads (2^-ddCt qPCR assays)” value came to 0.49, the “IL6 Quads (2^-ddCt qPCR assays)” value worked out at 0.39, the “IL12β Quads (2^-ddCt qPCR assays)” value was 0.57 and the “IL15 Quads (2^-ddCt qPCR assays)” value was determined as 2.25. Further, in series [2] (mouse, in vivo), the “MCP-1 Quads (2^-ddCt qPCR assays)” value came to 0.55 and the “TNF-α Quads (2^-ddCt qPCR assays)” value came to 0.26.

For “9b2-218 (antisense ACAUGGUUAGAUCAAGCACAA; all phosphorodiamidate morpholino (PMO), T or U not given here; Pip9b2 peptide conjugated)”, the “MBNL1 protein levels vs untreated DM1 cells” value in series [1] is listed as “significant increases observed in MBNL1 protein levels”.

For the substance “9b2KC-23b (antisense GGUAAUCCCUGGCAAUGUGAU; all phosphorodiamidate morpholino (PMO), T or U not given here; Pip9b2KC peptide conjugated)”, in series [2] (setting [3]), the “Mstn-1 expression in quadriceps” value is “downregulation of Mstn-1”. The “MBNL1 levels, gymnosis compared with transfection” value in series [1] (each compound at its EC50 concentration) was “identical MBNL1 modulation results by transfection and gymnosis”.

Consider “TCTTACCTCAGTTACAATTTA-Pip9b2 [Scramble, reference compound]”, for which, in series [2] (setting [3]), the “IL-6 and IL-15 expression in quadriceps” value was “reduced levels of IL-6 and IL-15”; the “Mstn-1 expression in quadriceps” value is recorded as “not detected”. For the same substance, the “levels of functional miR-218” value in the series on miR-218 is “did not reduce functional levels”. In addition, in the series with miR-23b, the “levels of functional miR-23b” value was “did not reduce functional levels”.
